Measured values published in patent US8242152B2, “Use of 4-[(4-thiazolyl)phenoxy]alkoxy-benzamidine derivatives for the prophylaxis and treatment of osteoporosis” (Dong Wha Pharmaceutical Co., Ltd., priority 2001, dated 2012).

What was measured:
[1] = tested on: bone resorption of osteoclast; assay: Measurement of bone resorption, pit formation assay on ivory fragment (Example 3); format: cell-based, mice; conditions: 24 hrs; for inhibition at 0.016 µM / inhibition at 0.08 µM / inhibition at 0.4 µM / inhibition at 2 µM / inhibition at 10 µM / IC50: Mus musculus, Osteoclast; for inhibition at 0.016 µM / inhibition at 0.08 µM / inhibition at 0.4 µM / inhibition at 2 µM / inhibition at 10 µM: read-out: Inhibitory action (%)
Experimental: The mature osteoclast (OCL) is mainly involved in removing mineral by bone resorption. This experiment is designed to measure the inhibitory effects of each test substance on the bone resorption of osteoclast using ivory fragment (Eijiro Jimi et al. Endocrinology 137, p 2187-2190, 1996).
The co-culture system for both bone marrow cells and osteoblast was performed using a cultivation dish containing collagen gel (cell matrix Type I-A). Collagen, 5-fold concentrated α-MEM medium and 0.05M NaOH buffer solution (2.2% NaHCO3, pH7.4) were mixed at the ratio of 7:2:1 at a low temperature, and then storage at a low temperature. Then, 4 mL of the mixed solution was added to a 100 mm culture dish, applied evenly and left at 37° C. for 5 minutes.
Using α-MEM medium, the mixture of both bone marrow cells (about 1×10^7 cells/plate) and osteoblast (about 5×10^5 cells/plate), so separated from Example 1, were plated on a 100 mm dish containing collagen gel. The co-culture was performed in the presence of differentiation factors such as vitamin D (10^−9M) and dexamethasone (10^−6M). As described above, a great number of mature multinucleated osteoclasts with the ability of bone resorption were obtained via a 7-day co-culture. The medium was removed from the cells and with the addition of 0.2% collagenase solution, the attachment cells were separated by incubation for 20 minutes. The cells were collected via centrifuge. The harvested crude osteoclasts were again diluted in α-MEM medium to make the cells of 5,000 cells/100 ul.
Hematoxylin staining solution was prepared in a manner such that hematoxylin (1 g) was dissolved in 500 ml of distilled water and was added to 500 ml of distilled water and […] (0.2 g). The reaction mixture was stirred for 15 mins. Ammonium alum (50 g) and 7.5 ml of acetic acid were further added to the reaction mixture and filtered off.
After the ivory fragments, cut to a thickness of 1 mm, were sterilized, each fragment was placed into a 96 well plate, and 100 ul α-MEM medium (10% FBS) was added. To measure its inhibitory effect against the pit formation of osteoclast, each test substance was added in a maximum amount of 3 ul per concentration.
With the addition of test substances, 100 ul of osteoclast solution was further added, mixed vigorously and cultured using a 5% CO2 incubator at 37° C. for 24 hrs. To observe the pits formed on the ivory fragments, the portion of grown osteoclast was directed upward and placed on a paper towel after removing from the 96 well plate. With the removal of cells on the ivory, 10 ul of hematoxylin solution was dropped on the ivory to perform the staining for about 5 minutes. The surface of the ivory fragments was rubbed with a soft cotton pole to completely remove the staining solution.

[2] = tested on: osteoclast differentiation; assay: Inhibitory effects on osteoclast differentiation, co-culture of bone marrow cells and osteoblast, TRAP staining (Example 1); format: cell-based, mice; conditions: 7-day co-culture; for inhibition at 0.0032 µM / inhibition at 0.016 µM / inhibition at 0.08 µM / inhibition at 0.4 µM / IC50: Mus musculus, Osteoclast, 168 h; for inhibition at 0.0032 µM / inhibition at 0.016 µM / inhibition at 0.08 µM / inhibition at 0.4 µM: read-out: % inhibitory action
Experimental: The effects of each test substance on osteoclast proliferation and differentiation process were evaluated via co-culture with osteoblast.
Tibia and Femora were aseptically ectomized from male ddY mice of 6-8 weeks to harvest bone marrow cells by using a syringe (21 G, Korea Green Cross).
The bone marrow cells were suspended in 5 mL α-MEM medium (Gibco BRL Co.) containing sodium bicarbonate (2.0 g/L), streptomycin (100 mg/L) and penicillin ([…]). The harvested cells were centrifuged at 800×g for 5 minutes to collect the whole quantity. To remove the red blood cells within bone marrow cells, 3 mL of Tris HCl (0.83% NH4Cl, pH7.5) was added and well mixed. After centrifuging the above cells, the numbers of bone marrow cells were counted and then the bone marrow cells were immediately used for a co-culture system with osteoblast.
The calvaria were aseptically ectomized from neonate ICR mice of 1-2 days, washed with PBS solution and incubated with a mixture of enzyme solutions (0.2% collagenase and 0.1% dispase) at 37° C. gentle shaker. This procedure was sequentially repeated (10, 10, 10, 20, 20 and 20 minutes), and then the calvaria cells having the characteristics of osteoblast, were mostly released from III˜VI digestion groups, were collected and washed with the medium (serum-free α-MEM). The washed cells were cultivated in α-MEM medium containing 10% FBS for 2-3 days. After subculturing, these cells were used for this experiment, and diluted to reach the concentration of 1×10^6 cells/mL for storage at −70° C.
The volume of final specimen added to the medium was determined at the ratio of 1:1000.
Bone marrow cells, so prepared from the above No. 1, and osteoblast from calvaria were co-cultured for osteoclast differentiation. Both bone marrow cells (25,000 cells/cm^2) and osteoblast (10,000 cells/cm^2) were plated on a 96 well plate in α-MEM medium containing 10% FBS with the specimen, and then the reaction mixture was cultured for 7 days. Some differentiation factors, such as dexamethasone (10^−6M) and vitamin D3(10^−9M), were also continuously added to the medium from the first day of cultivation. The media were changed with fresh media containing a mixture of specimens and differentiation factors every 2-3 day.
TRAP was used as a marker to measure osteoclast in consideration of its characteristics showing a positive reaction to TRAP staining solution. TRAP staining solution was prepared in a manner such that 5 mg of naphtol AS-MS phosphate (sigma N-4875), a substrate and 25 mg of coloring agent (Fast Red Violet LB salt) were dissolved in N,N-dimethylformamide (about 0.5 mL) and with the addition of 0.1N NaHCO3 buffer solution (50 mL) containing 50 mM of tartaric acid. The reaction mixture was stored in a refrigerator prior to use.
After a 7-day culture, the medium was removed from the wells and then the cells were washed once with PBS solution and fixed to PBS containing 10% formalin for 2-5 minutes. The cells were also fixed in a mixed solution, ethanol and acetone (1/1), for about 1 minute, and dried off. The cells were further treated by TRAP staining solution for 15 minutes and washed with PBS to measure the experimental results with the staining degree of cells under a microscopic examination.
The counts of osteoclast only with more than 3 nuclei showing the TRAP-positive reaction were calculated under a microscopic examination, and each test was reconfirmed over three times to insure more reliable data.
As shown in the following table 1, the inhibitory effect of each experimental group on the differentiation of osteoclast versus controls were expressed by inhibitory percentage value, and 50% inhibitory concentration on osteoclast differentiation was calculated as IC50.

Cc1nc(-c2ccc(OCCCCCOc3ccc(C(=N)NO)cc3)cc2)c(C(C)C)s1 [DW1350, N-hydroxy-4-{5-[4-(5-isopropyl-2-methyl-1,3-thiazol-4-yl)phenoxy]pentoxy}-benzamidine] was tested, and the inhibition at 0.016 µM ([1]; 0.016 μM) was 32.2%, the inhibition at 0.08 µM ([1]; 0.08 μM) was 53.9% and the inhibition at 0.4 µM ([1]; 0.4 μM) was 65.2%. It also gave an inhibition at 2 µM ([1]; 2 μM) of 84.3%, an inhibition at 10 µM ([1]; 10 μM) of 91.3% and an IC50 [1] of 75 nM. It also gave an inhibition at 0.0032 µM ([2]; 3.2 nM) of 1%, an inhibition at 0.016 µM ([2]; 16 nM) of 68.8% and an inhibition at 0.08 µM ([2]; 80 nM) of 82.3%. The inhibition at 0.4 µM ([2]; 400 nM) was 88% and the IC50 [2] was 19.9 nM.
“4-[5-[4-(aminoiminomethyl)phenoxy]pentoxy]-3-methoxy-N,N-bis(1-methylethyl)benzamide maleic acid [CGS-25019C]” was tested, and the “Inhibitory action (%)” value ([1]; 0.016 μM) was 0%, the “Inhibitory action (%)” value ([1]; 0.08 μM) was 0% and the “Inhibitory action (%)” value ([1]; 0.4 μM) was 2%. For the same molecule, the “Inhibitory action (%)” value ([1]; 2 μM) was 9.2%, the “Inhibitory action (%)” value ([1]; 10 μM) was 17.3% and the “% inhibitory action” value ([2]; 3.2 nM) was −8.9%. The “% inhibitory action” value ([2]; 16 nM) was 8.3%, the “% inhibitory action” value ([2]; 80 nM) was 0.0% and the “% inhibitory action” value ([2]; 400 nM) was 17.7%.
For Cc1nc(-c2ccc(OCCCCCOc3ccc(C(=N)N)cc3)cc2)c(C(C)C)s1 [DW1352, 4-{5-[4-(5-isopropyl-2-methyl-1,3-thiazol-4-yl)phenoxy]pentoxy}-benzamidine], the inhibition at 0.016 µM ([1]; 0.016 μM) was 25%, the inhibition at 0.08 µM ([1]; 0.08 μM) was 48.7% and the inhibition at 0.4 µM ([1]; 0.4 μM) was 61.3%. For the same molecule, the inhibition at 2 µM ([1]; 2 μM) was 81.7%, the inhibition at 10 µM ([1]; 10 μM) was 90% and the IC50 [1] was 131 nM. For the same molecule, the inhibition at 0.0032 µM ([2]; 3.2 nM) was 50%, the inhibition at 0.016 µM ([2]; 16 nM) was 81.8% and the inhibition at 0.08 µM ([2]; 80 nM) was 83.9%. It also gave an inhibition at 0.4 µM ([2]; 400 nM) of 92.7% and an IC50 [2] of 1.25 nM.
COc1cc(C(=O)N(C(C)C)C(C)C)ccc1OCCCCOc1ccc2c(N)noc2c1 [HS1141, N,N-diisopropyl-4-[4-(3-aminobenzo[d]isooxazole-6-yloxy)butoxy]-3-methoxybenzamide] gave an inhibition at 0.016 µM ([1]; 0.016 μM) of 9%, an inhibition at 0.08 µM ([1]; 0.08 μM) of 33% and an inhibition at 0.4 µM ([1]; 0.4 μM) of 50.4%. For the same molecule, the inhibition at 2 µM ([1]; 2 μM) was 75.3%, the inhibition at 10 µM ([1]; 10 μM) was 88.7% and the IC50 [1] was 421 nM. It also gave an inhibition at 0.0032 µM ([2]; 3.2 nM) of 1.2%, an inhibition at 0.016 µM ([2]; 16 nM) of 3% and an inhibition at 0.08 µM ([2]; 80 nM) of 12%. For the same molecule, the inhibition at 0.4 µM ([2]; 400 nM) was 23.5%.
